# Where two headings read alike, the source gives them in different places.
# Legend:
# [1] = system: peripheral blood lymphocytes of HIV-positive, influenza positive humans; conditions: cited from earlier work; for tested cases with significant IL-2 responses: peripheral blood lymphocytes of HIV-positive, influenza positive humans, previous study (42)
# [2] = system: gp160-expressing 15-12 BALB/c fibroblast cell line; type: cell-based; conditions: spleen cells of B10.A(5R) mice immunized with 20 nmoles PCLUS4-18, restimulated 6 days
# Description: The resulting effector cells were tested on the gp160-expressing 15-12 BALB/c fibroblast cell line or on neo-only transfected fibroblast cells (not shown) as targets (FIG. 9B). […] SEM of triplicate wells was less than 7.3% of the mean.
# [3] = system: BALB/c.3T3 transfectants expressing the whole gp160 protein (cell line 15-12) or P18 pulsed 18neo cells; type: in vivo, mice
# Description: Mice 8-20 weeks old were immunized subcutaneously at the tail base with 20 nmoles of each peptide mixed with QS21 (15 μg), the highly purified saponin fraction from the soap bark tree Quillaja saponaria, which retains the greatest adjuvant activity but is non-toxic (103). […] Cytolytic activity of in vitro secondary CTL was measured as described previously (104) using a 6 hr. assay with ^51Cr-labeled targets. […] Maximum release was determined from supernatants of cells that were lysed by the addition of 5% Triton X-100. Spontaneous release was determined from targets cells incubated without added effectors cells. The assay was performed in triplicate, with 5000 target cells per well.
# Background lysis on control 18neo fibroblasts in the absence of peptide was less than 8%. SEM of triplicate wells was less than 7.2% of the mean.
# Peptide 18 = conditions: for ELISA: Mean p18 Specific Absorbance ± S.E.M.: 31 days after single immunization with 20 nanomole peptide, 5 mouse sera at 1:1000 serum dilution
# Description: ELISA. Wells of round bottom flexible PVC microtiter plates (#3912 Falcon Labware, Oxnard, Calif.) were coated overnight at 4° C. with 100 μl of 10 μM Peptide 18, substituted peptide 18, cluster peptide 3, cluster peptide 6, 0.2 μg/ml recombinant gp 120 (ABT, Advanced Biotechnologies, Mass.) or 2 μM sperm whale myoglobin in 0.1 M carbonate buffer pH 9.6. […] The plates were blocked with 1% BSA in phosphate buffered saline (PBS) for 1-1.5 h. at 4° C. and washed with PBS containing 0.05% Tween 20 and 1% BSA (PBSTB). Next, 100 μl of test serum was added to duplicate wells and incubated for 1-1.5 h. at 4° C. Test sera were assayed at 10 fold dilutions in PBSTB ranging from 1:100-1:10,000. The wells were then washed with 200 μl PBSTB 10 times using an automatic plate washer (BioRad Model 1550) and incubated for 1 h at 4° C. with 100 μl alkaline phosphatase-conjugated goat anti-mouse IgG (Promega, Madison, Wis.) diluted 1:7500 in PBSTB. After 10 washes, bound antibodies were detected by the addition of 100 μl of 1 mg/ml paranitrophenyl phosphate as substrate. The optical density at 405 nm was read with an ELISA reader. Specific absorbance was determined as the mean optical density at 405 nm on the relevant antigen coated wells minus the optical density 405 nm on nonrelevant sperm whale myoglobin coated wells.
# (§1) Immunizations. Mice were immunized intraperitoneally with 20 nanomoles of each peptide emulsified 1:1 in Freund's Complete Adjuvant (CFA). At days 21 and 31 post immunization blood was drawn by retroorbital bleed, allowed to clot and the serum removed and frozen at −20° C.
# HIV-1 IIIB = assay: Neutralization of HIV-1 IIIB by immune sera, quantitative infectivity microassay using CEM-SS cells; type: in vivo; conditions: 31 days after single immunization with 20 nanomole peptide
# Description: as §1
# Neutralization assays of HIV-1. The quantitative infectivity microassay using CEM-SS cells was performed as described previously (52). […] The mixtures were added to duplicate wells containing 5×10^4 DEAE-dextran treated CEM-SS cells for 1 h at 37° C., after which the virus-antibody mixtures were removed and replaced with medium, and the cells cultured only in complete medium for 5 days (for HIV-1 IIIB) or 4 days (for HIV-1 MN, determined to be optimal for each virus strain) at 37° C. in 5% CO2. Units of infectious virus were quantitated by subsequent syncytia formation of infected cells under an inverted microscope. […] The assay measures neutralization of cell-free virus in the first incubation, not inhibition of syncytium formation, which is only the readout for enumerating infectious virus. […]
sequence,measurement,setting,value
AVAEGTDRVIEVVQGAYRAIRHIPRRIRQGLER [PCLUS6],tested cases with significant IL-2 responses,[1],58%
EQMHEDIISLWDQSLKPCVK [PCLUS 1],donors in which IL-2 production was stimulated,"[1]; HIV seropositive, flu-positive donors",23 of 36
same,tested cases with significant IL-2 responses,[1],64%
KQIINMWQEVGKAMYAPPISGQIR [PCLUS3],tested cases with significant IL-2 responses,[1],73%
RDNWRSELYKYKVVKIEPLGVAPT [PCLUS4],induction of CTL activity on in vitro restimulation (in words),[2],did not induce any CTL activity
same,tested cases with significant IL-2 responses,[1],52%
RIQRGPGRAFVTIGK [Peptide P18],"CTL activity, linkage requirement experiment (in words)","[3]; B10.D2 (PCLUS3 series) or B10.A(5R) (PCLUS4 series) mice, QS21, restimulated with 0.1 μM P18 and rIL2",negligible
same,CTL activity after single immunization in QS21 (in words),"[3]; B10.D2, B10.A(5R), B10.S(9R) mice, restimulated with P18, E:T up to 60:1",only marginal CTL activity
same,induction of CTL activity on in vitro restimulation (in words),[2],not
same,ELISA: Mean p18 Specific Absorbance ± S.E.M.,Peptide 18; B10.A(5R) (A^bE^b) mice,0.00
same,ELISA: Mean p18 Specific Absorbance ± S.E.M.,Peptide 18; B10.BR or B10.A (A^kE^k) mice,0.00
same,ELISA: Mean p18 Specific Absorbance ± S.E.M.,Peptide 18; B10.HTT (A^aE^a) mice,0.00
same,ELISA: Mean p18 Specific Absorbance ± S.E.M.,Peptide 18; BALB/c or B10.D2 (A^dE^d) mice,0.00
same,peptide 18 specific antibody response (in words),Peptide 18; mice of four strains immunized with 20 nanomoles of construct,no peptide 18 specific antibody was detected
same,No. of mice with positive neutralizing titers/total tested,HIV-1 IIIB; B10.BR or B10.A (A^kE^k) mice,(0/5)
same,No. of mice with positive neutralizing titers/total tested,HIV-1 IIIB; BALB/c or B10.D2 (A^dE^d) mice,(0/5)

# Reference: patent publication US7094405B1, “Peptides which elicit a high neutralizing antibody titer, cytotoxic T lymphocyte response and T helper cell response in a broad range of MHC type recipients” (priority 1986, dated 2006)
